This is an account of results in publication PMC7018746, “An efficient and targeted synthetic approach towards new highly substituted 6-amino-pyrazolo[1,5-a]pyrimidines with α-glucosidase inhibitory activity” (Scientific Reports, 2020).

Like-named read-outs stand apart in the source and are kept apart here. Bounds are passed on as bounds.

Data set [1] relates to breast cancer cell line MDA-MB-231. As to the kind of experiment: Cytotoxicity studies, MDA-MB-231. The class given is cell-based. The following applies: MDA-MB-231, at concentration of 100 µM. As for the experimental part: (§1) The cytotoxicity of some of potent compounds including 3d, 3m, 3v, and 3af was evaluated through use of the breast cancer cell line MDA-MB-231 and human pancreatic cancer cell line PANC-1.

The nature of data set [2]: Cytotoxicity studies, MDA-MB-231. In kind it is cell-based. The following applies: human, MDA-MB-231 breast cancer cells. The procedure: as §1
Data set [3] concerns human pancreatic cancer cell line PANC-1. As to the kind of experiment: Cytotoxicity studies, PANC-1. The following applies: PANC-1, at concentration of 100 µM. The class given is cell-based. The procedure: as §1
Data set [4] can be described thus: Cytotoxicity studies, PANC-1. The class given is cell-based, human. The following applies: human, PANC-1 pancreatic cancer cells. The procedure: as §1
Data set [5] addresses T1, α-glucosidase (Saccharomyces cerevisiae, EC.3.2.1.20) (Saccharomyces cerevisiae, UniProt P53341).
T1 construct: purchased Sigma-Aldrich
Kind of data set: biochemical. The class given is biochemical. The following applies: for IC50: mean ± SD, at least three experiments, read-out: IC50 (µM), in vitro α-glucosidase inhibitory activity. As for the experimental part: α-Glucosidase enzyme (EC3.2.1.20, Saccharomyces cerevisiae, 20 U/mg) and substrate (p-nitrophenyl glucopyranoside) were purchased from Sigma-Aldrich. […] Finally, the change in absorbance was measured at 405 nm by using spectrophotometer (Gen5, Power wave xs2, BioTek, America). DMSO (10% final concentration) and acarbose were used respectively as control and standard drug. The percentage of enzyme inhibitionwas calculated and IC50 values were obtained from non-linear regression curve using the Logit method.

For another data set, the target named is T2, α-glucosidase (Saccharomyces cerevisiae, UniProt P53341).
T2 construct: purchased Sigma-Aldrich
Kind of data set: Enzyme kinetic studies (Lineweaver-Burk and secondary plots). The class given is biochemical. The following applies: for inhibition type: Lineweaver-Burk plot: Km increased, Vmax unchanged; for Ki: estimated from plot of Km versus inhibitor concentration, read-out: inhibition constant, Ki. The procedure:
The inhibition mode of the synthesized compounds 3 against α-glucosidase was investigated. […]. The inhibition type was indicated on the basis of Michaelis-Menten and Lineweaver-Burk plots. […] […]. The […] of enzyme solution (1 U/mL) was incubated with different concentrations (0, 5, 10, and 15 µM) of selected compounds for 15 min at 30 °C. The reaction was then started by adding different concentrations of substrate (p-nitrophenyl glucopyranoside, 1-10 mM), and change in absorbance was measured for 20 min at 405 nm by using spectrophotometer (Gen5, Power wave xs2, BioTek, America).

T2 sequence (P53341 whole entry): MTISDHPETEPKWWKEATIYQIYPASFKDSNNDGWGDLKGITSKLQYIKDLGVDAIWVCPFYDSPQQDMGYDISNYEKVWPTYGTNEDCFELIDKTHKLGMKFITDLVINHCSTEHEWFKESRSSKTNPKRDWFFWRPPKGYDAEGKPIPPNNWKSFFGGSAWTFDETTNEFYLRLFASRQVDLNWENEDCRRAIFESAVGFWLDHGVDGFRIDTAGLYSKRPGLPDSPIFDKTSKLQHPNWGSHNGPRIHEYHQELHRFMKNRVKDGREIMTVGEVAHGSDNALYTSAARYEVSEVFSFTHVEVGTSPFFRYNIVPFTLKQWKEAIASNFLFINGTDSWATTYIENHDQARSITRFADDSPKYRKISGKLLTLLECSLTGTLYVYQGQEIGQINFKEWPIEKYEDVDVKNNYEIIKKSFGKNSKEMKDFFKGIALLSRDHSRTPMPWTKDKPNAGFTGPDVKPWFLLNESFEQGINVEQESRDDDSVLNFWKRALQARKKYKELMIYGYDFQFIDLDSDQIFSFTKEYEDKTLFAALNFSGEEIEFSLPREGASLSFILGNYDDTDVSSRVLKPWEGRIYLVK
T1 sequence (P53341 whole entry): as above

One may read the IC50 as the concentration needed to halve the response being measured. As usually defined, the Ki is a dissociation constant, usually derived from enzyme kinetics or from competition with a known ligand. For `Cc1ccc(-c2nc3c(C(=O)Nc4ccccc4)c(Nc4ccccc4)nn3c(-c3ccc(Br)cc3)c2N)cc1` [3d, 6-Amino-7-(4-bromophenyl)-N-phenyl-2-(phenylamino)-5-p-tolylpyrazolo[1,5-a]pyrimidine-3-carboxamide], the cytotoxic activity entry in data set [1] and in data set [3] was “did not possess any cytotoxic activity” each time. Besides, the half-inhibitory concentration (IC50) in data set [2] is over 200 µM; in data set [4] it was over 200 µM; in data set [5] (Table 1, compounds 3a-z), 15.2 ± 0.4 µM. In data set [5] (ratio of α-glucosidase IC50 values vs acarbose), the “fold more potent than acarbose” value is on record as “around 50 fold”. Besides, the inhibition type entry at α-glucosidase is “competitive inhibition”. For the same molecule, the Ki at α-glucosidase was 12 µM.
The term melting point denotes the temperature of the solid-liquid transition. On to `COc1ccc(NC(=O)c2c(Nc3ccccc3)nn3c(-c4ccc(Br)cc4)c(N)c(-c4ccc(C)cc4)nc23)cc1` [3m, 6-Amino-7-(4-bromophenyl)-N-(4-methoxyphenyl)-2-(phenylamino)-5-p-tolylpyrazolo[1,5-a]pyrimidine-3-carboxamide], for which the melting point lay within 282 to 283 °C. Moreover, the cytotoxic activity result in data set [1] is listed as “did not possess any cytotoxic activity”. Further, in data set [2], the IC50 was over 200 µM. Moreover, in data set [3], the cytotoxic activity entry is “did not possess any cytotoxic activity”. In addition, the IC50 in data set [4] was over 200 µM. For the same molecule, the IC50 in data set [5] (Table 1, compounds 3a-z) amounted to 24.7 ± 1.1 µM.
For `CCOC(=O)c1c(-c2ccccc2)nn2c(-c3ccc(Cl)cc3)c(N)c(-c3ccc(OC)cc3)nc12` [3af, Ethyl 6-amino-7-(4-chlorophenyl)-5-(4-methoxyphenyl)-2-phenylpyrazolo[1,5-a]pyrimidine-3-carboxylate], the melting point fell in the range of 226 to 228 °C. In addition, the cytotoxic activity result in data set [1] is listed as “did not possess any cytotoxic activity”. The molecule also registered an IC50 in data set [2] of over 200 µM. In addition, the cytotoxic activity result in data set [3] was “did not possess any cytotoxic activity”. In data set [4], this molecule returned an IC50 of over 200 µM. Also, the IC50 in data set [5] (Table 2, compounds 3aa-ai) amounted to 65.5 ± 3 µM. On α-glucosidase, the inhibition type result was “competitive inhibition” and the Ki was 65 µM.
`CCOC(=O)c1c(-c2ccccc2)nn2c(-c3ccc(Cl)cc3)c(N)c(-c3ccc(C)cc3)nc12` [3ac, Ethyl 6-amino-7-(4-chlorophenyl)-2-phenyl-5-p-tolylpyrazolo[1,5-a]pyrimidine-3-carboxylate] registered a melting point of 221 to 223 °C. Besides, in data set [5] (Table 2, compounds 3aa-ai), the IC50 was found to be 185 ± 6 µM.
Molecule `Cc1ccc(-c2nc3c(C(=O)Nc4ccc(Cl)cc4)c(Nc4ccccc4)nn3c(-c3ccc(Cl)cc3)c2N)cc1` [3u, 6-Amino-N,7-bis(4-chlorophenyl)-2-(phenylamino)-5-p-tolylpyrazolo[1,5-a]pyrimidine-3-carboxamide] displayed a melting point of 281 to 282 °C. Further, the IC50 in data set [5] (Table 1, compounds 3a-z) was found to be 55.6 ± 3.6 µM.
Regarding `Cc1ccc(-c2nc3c(C(=O)Nc4ccc(Cl)cc4)c(Nc4ccccc4)nn3c(-c3ccc(Br)cc3)c2N)cc1` [3v, 6-Amino-7-(4-bromophenyl)-N-(4-chlorophenyl)-2-(phenylamino)-5-p-tolylpyrazolo[1,5-a]pyrimidine-3-carboxamide], the melting point was 271 to 273 °C. The cytotoxic activity entry in data set [1] is reported as “did not possess any cytotoxic activity”. The molecule also gave an IC50 in data set [2] of over 200 µM. For the same molecule, the cytotoxic activity entry in data set [3] is on record as “did not possess any cytotoxic activity”. This molecule also displayed an IC50 in data set [4] of over 200 µM. In data set [5] (Table 1, compounds 3a-z), the IC50 is 17.6 ± 0.6 µM.
`COc1ccc(NC(=O)c2c(Nc3ccccc3)nn3c(-c4ccc(Cl)cc4)c(N)c(-c4ccc(Cl)cc4)nc23)cc1` [3q, 6-Amino-5,7-bis(4-chlorophenyl)-N-(4-methoxyphenyl)-2-(phenylamino)pyrazolo[1,5-a]pyrimidine-3-carboxamide] had a melting point of 245 to 246 °C. The IC50 in data set [5] (Table 1, compounds 3a-z) was found to be 36.5 ± 2.5 µM.
The corresponding values for `COc1ccc(-c2nc3c(C(=O)Nc4ccccc4)c(Nc4ccccc4)nn3c(-c3ccc(Cl)cc3)c2N)cc1` [3f, 6-Amino-7-(4-chlorophenyl)-5-(4-methoxyphenyl)-N-phenyl-2-(phenylamino)pyrazolo[1,5-a]pyrimidine-3-carboxamide] are 237 to 238 °C and 85.7 ± 5.3 µM.
